Where a SMILES comes first, the peptide text is derived from it.

What all share (experiment): biochemical
Holding throughout (format): binding

The target of one test is T1, HLA-DRB1*0101 (Homo sapiens, UniProt P01903+P01911, A100R/D57E/F55L/F60I/F76Y/I96L/L162R/M171V/P40L/Q125E/R42F/V115G/Y59C).
T1 construct: purchased
The settings on record: binding inhibition assay; NB = non-binder (no dose-dependent inhibition); read-out: DRB1*0101 IC50. As to the method:
(§1) The binding assay conducted by EpiVax yields an indirect measure of peptide-MHC affinity as it utilizes a competition assay format per the methodology described in Steere et al. ([35]). […] Post incubation, the mixtures are moved to a 96-well plate coated with anti-HLA-DR antibody to capture HLA-peptide complexes. Time-resolved fluorescence measurement of the bound labeled reference peptide complex present in each mixture is detected with a europium-linked probe via fluorescent spectrophotometry using a SpectraMax M5 system. HLA binding affinity of each test peptide is expressed as the percent inhibition of reference peptide binding. Percent inhibition values (across the test peptide titration range) are used to calculate the half maximal inhibitory concentration (IC50) of each test peptide. For these studies, test peptides were assessed using a range of final concentrations from 100,000 nM to 100 nM. The panel of commercially-available HLA-DRB1 allele monomers used includes: *0101, *0301, *0401, *0701, *0801, *1101, *1301 and *1501. EpiVax established HLA-DRB1 binding affinity cutoffs were used to rank the IC50 values.
(§2) In vitro HLA binding assays (step 2 of workflow shown in Figure 1 ) were carried out with the synthesized peptides to verify the EpiMatrix outputs and provide a measure of accuracy for comparing in silico-predicted HLA-DRB1 allele binding to laboratory assessments of HLA-DRB1 allele binding. These assessments were conducted using a competition assay format whereby IC50 values were calculated based on the ability of the test peptide to compete with a labeled, high binding affinity reference peptide for HLA-DRB1 molecule binding. Sequences for the high affinity reference peptides and the negative control peptide, known not to bind any of the HLA-DRB1 molecules, are provided in Table S18 .

The target in a further test is T2, HLA-DRB1*0401 (Homo sapiens, UniProt P01903+P01911, A100K/A169T/F76Y/I96L/K127E/L162R/M171V/N62H/P40V/Q125Y/R42H/S133A/S149N/S66Y/V115G/V209L/W38E).
T2 construct: purchased
Particulars: binding inhibition assay; NB = non-binder (no dose-dependent inhibition); read-out: DRB1*0401 IC50. As to the method: as §1, §2

For the next test, the target named is HLA-DRB1*0701 (Homo sapiens, UniProt P01903+P01911, A100R/A102G/A103Q/D57E/D86V/E43K/F76Y/K127E/L162R/M171V/P40G/Q125H/Q99D/R33Q/R42Y/R54Q/S133A/S66F/T210M/V115G/Y107V/Y59L/Y89S). The settings on record: binding inhibition assay; NB = non-binder (no dose-dependent inhibition); read-out: DRB1*0701 IC50. As to the method:
as §1, §2

In a further test the target is HLA-DRB1*0801 (Homo sapiens, UniProt P01903+P01911, A100R/A103L/A169T/D86S/F76Y/H45Y/I96F/K41T/L162R/M171V/P40S/Q125H/Q178H/Q39Y/Q99D/R218S/R42G/S66Y/V115G/W38E). Particulars: binding inhibition assay; NB = non-binder (no dose-dependent inhibition); read-out: DRB1*0801 IC50. As to the method: as §1, §2
For the next test, the target named is HLA-DRB1*1101 (Homo sapiens, UniProt P01903+P01911, A100R/A169T/A87E/I96F/K41T/L162R/M171V/P40S/Q125H/Q178H/Q39Y/Q99D/R42S/S66Y/T262R/V115G/W38E). The settings on record: binding inhibition assay; NB = non-binder (no dose-dependent inhibition); read-out: DRB1*1101 IC50. As to the method:
as §1, §2

In another test the target is HLA-DRB1*1301 (Homo sapiens, UniProt P01903+P01911, A100E/A169T/K41T/L162R/M171V/P40S/Q125H/Q178H/Q39Y/Q99D/R42S/S66N/T262R/W38E/Y61H). Particulars: binding inhibition assay; NB = non-binder (no dose-dependent inhibition); read-out: DRB1*1301 IC50. As to the method:
as §1, §2

In the next test the target is T3, HLA-DRB1*1501 (Homo sapiens, UniProt P01903+P01911).
T3 construct: purchased
Particulars: binding inhibition assay; NB = non-binder (no dose-dependent inhibition); read-out: DRB1*1501 IC50. As to the method:
as §1, §2

Sequence of HLA-DRB1*1101 (P01903 26-254 limits assumed, other chains not shown): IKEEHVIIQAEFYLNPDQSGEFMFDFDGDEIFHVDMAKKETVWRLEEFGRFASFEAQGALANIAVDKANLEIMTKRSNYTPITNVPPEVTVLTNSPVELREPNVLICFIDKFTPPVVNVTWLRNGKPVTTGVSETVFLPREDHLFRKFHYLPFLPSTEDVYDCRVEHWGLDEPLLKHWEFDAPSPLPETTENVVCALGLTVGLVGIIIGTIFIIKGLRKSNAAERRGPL

As for `CC(=O)N[C@@H](Cc1ccccc1)C(=O)N[C@@H](CCC(N)=O)C(=O)N[C@@H](CC(N)=O)C(=O)N[C@@H](Cc1ccc(O)cc1)C(=O)N[C@H](C(=O)N[C@@H](Cc1ccc(O)cc1)C(=O)N[C@@H](CC(C)C)C(=O)N[C@@H](CO)C(=O)N[C@@H](CCCCN)C(=O)N[C@@H](CC(N)=O)C(=O)N[C@H](C(=O)N[C@H](C(=O)N[C@@H](CC(=O)O)C(=O)N[C@@H](CC(N)=O)C(=O)N[C@@H](Cc1c[nH]c2ccccc12)C(=O)N[C@@H](CCC(=O)O)C(N)=O)C(C)C)C(C)C)[C@@H](C)O` [AMA1_004] (Ac-FQNYTYLSKNVVDNWE-NH2), the IC50 amounted to 16 nM on HLA-DRB1*0101; 9.69 µM at HLA-DRB1*0401; 9.48 µM on HLA-DRB1*0701; 0.01 µM on HLA-DRB1*0801; 0.567 µM at HLA-DRB1*1101; 70 µM on HLA-DRB1*1301. For the same compound, the half-inhibitory concentration (IC50) on HLA-DRB1*1501 was found to be 248 nM.

Take `CC[C@H](C)[C@H](NC(=O)[C@H](CC(=O)O)NC(=O)[C@H](Cc1ccc(O)cc1)NC(=O)[C@H](CCC(=O)O)NC(=O)[C@H](CC(N)=O)NC(=O)[C@H](CCCNC(=N)N)NC(=O)[C@H](C)NC(=O)[C@H](CCCCN)NC(=O)[C@H](C)NC(=O)[C@H](Cc1ccccc1)NC(=O)[C@H](Cc1ccc(O)cc1)NC(=O)[C@H](CC(C)C)NC(=O)[C@@H](NC(=O)[C@H](Cc1ccccc1)NC(=O)[C@H](Cc1ccccc1)NC(=O)[C@H](CO)NC(=O)[C@H](C)NC(C)=O)C(C)C)C(=O)N[C@@H](CCCCN)C(N)=O` [EBA175_001B] (Ac-ASFFVLYFAKARNEYDIK-NH2): the half-maximal inhibitory concentration (IC50) at HLA-DRB1*0101 was determined as 678 nM; at HLA-DRB1*0401 it was 2.27 µM; on HLA-DRB1*0701 it was 0.421 µM; at HLA-DRB1*0801, 9.88 µM; on HLA-DRB1*1101 it was 0.52 µM; on HLA-DRB1*1301, 2.24 µM. The IC50 at HLA-DRB1*1501 was found to be 265 nM.

For `CC[C@H](C)[C@H](NC(=O)[C@H](Cc1ccccc1)NC(=O)[C@H](CC(N)=O)NC(=O)[C@@H](NC(=O)[C@H](CC(N)=O)NC(=O)[C@H](CCCCN)NC(=O)[C@@H](NC(=O)[C@H](CC(N)=O)NC(=O)[C@H](CC(N)=O)NC(=O)[C@@H](NC(=O)[C@H](CC(N)=O)NC(=O)[C@H](CC(=O)O)NC(=O)CNC(=O)[C@@H](NC(=O)[C@H](Cc1ccc(O)cc1)NC(=O)[C@H](Cc1ccccc1)NC(=O)[C@@H](N)Cc1c[nH]cn1)C(C)C)[C@@H](C)CC)C(C)C)C(C)C)C(=O)N[C@@H](CCC(=O)O)C(N)=O` [CYRPA_005] (H-HFYVGDNINNVKNVNFIE-NH2), the IC50 at HLA-DRB1*0101 was found to be 182 nM; on HLA-DRB1*0401 it was 0.078 µM; at HLA-DRB1*0701, 0.137 µM; on HLA-DRB1*0801, 11.8 µM; on HLA-DRB1*1101, 0.293 µM; on HLA-DRB1*1301, 0.633 µM. For the same compound, on HLA-DRB1*1501, the IC50 is 122 nM.

For the compound `CC[C@H](C)[C@H](NC(=O)[C@H](CC(N)=O)NC(=O)[C@H](Cc1ccc(O)cc1)NC(=O)[C@H](CC(N)=O)NC(=O)[C@H](CO)NC(=O)[C@H](CC(C)C)NC(=O)[C@H](CCC(=O)O)NC(=O)[C@H](CCCCN)NC(=O)[C@H](Cc1ccccc1)NC(=O)[C@H](Cc1c[nH]cn1)NC(=O)[C@H](Cc1ccc(O)cc1)NC(=O)[C@H](CCC(N)=O)NC(=O)[C@@H](N)CC(C)C)C(=O)N[C@@H](C)C(=O)N[C@@H](CC(N)=O)C(=O)N[C@@H](CO)C(=O)N[C@H](C(=O)N[C@@H](CC(=O)O)C(N)=O)[C@@H](C)CC` [RH5_005] (H-LQYHFKELSNYNIANSID-NH2), the IC50 at HLA-DRB1*0101 was 18 nM; on HLA-DRB1*0401, 2.86 µM; at HLA-DRB1*0701, 3.79 µM; on HLA-DRB1*0801 it was 19.4 µM; on HLA-DRB1*1101, 11.3 µM; at HLA-DRB1*1301, 50.9 µM. Moreover, on HLA-DRB1*1501, the IC50 was 25 nM.

With `CC[C@H](C)[C@H](NC(=O)[C@H](CC(N)=O)NC(=O)[C@H](CC(N)=O)NC(=O)[C@H](CC(C)C)NC(=O)[C@H](Cc1c[nH]cn1)NC(=O)[C@H](CCCCN)NC(C)=O)C(=O)N[C@@H](Cc1ccccc1)C(=O)N[C@@H](Cc1c[nH]cn1)C(=O)N[C@@H](Cc1c[nH]cn1)C(=O)N[C@@H](CC(C)C)C(=O)N[C@H](C(=O)N[C@@H](Cc1ccc(O)cc1)C(=O)N[C@H](C(=O)N[C@@H](CC(C)C)C(=O)N[C@@H](CCC(N)=O)C(=O)N[C@@H](CCSC)C(=O)N[C@@H](CCCCN)C(N)=O)C(C)C)[C@@H](C)CC` [RH5_012] (Ac-KHLNNIFHHLIYVLQMK-NH2), the IC50 on HLA-DRB1*0101 worked out at 25 nM; on HLA-DRB1*0401 it was 7.23 µM; on HLA-DRB1*0701 it was 24.2 µM; on HLA-DRB1*0801 it was 91.7 µM; at HLA-DRB1*1101, 33.9 µM; on HLA-DRB1*1301, 8.83 µM. In addition, the IC50 on HLA-DRB1*1501 worked out at 7710 nM.

In the case of `CC[C@H](C)[C@H](NC(=O)[C@H](CC(=O)O)NC(=O)[C@@H]1CCCN1C(=O)[C@H](CC(C)C)NC(=O)[C@@H](NC(=O)[C@H](CO)NC(=O)[C@H](CO)NC(=O)[C@H](CC(N)=O)NC(=O)[C@H](Cc1ccc(O)cc1)NC(=O)[C@H](CC(C)C)NC(=O)[C@H](CO)NC(=O)[C@@H]1CCCN1C(=O)[C@@H](NC(=O)[C@H](CC(N)=O)NC(=O)[C@H](CO)NC(=O)[C@H](Cc1c[nH]cn1)NC(=O)[C@H](CC(C)C)NC(=O)[C@H](Cc1c[nH]cn1)NC(=O)[C@H](CO)NC(=O)[C@H](CC(N)=O)NC(=O)[C@H](CCCCN)NC(C)=O)[C@@H](C)CC)[C@@H](C)CC)C(=O)N[C@@H](CC(N)=O)C(=O)N[C@@H](CCCCN)C(=O)N[C@@H](CO)C(N)=O` [RIPR_008] (Ac-KNSHLHSNIPSLYNSSILPDINKS-NH2), the IC50 on HLA-DRB1*0101 is 400 nM; on HLA-DRB1*0401, 48.5 µM; on HLA-DRB1*0701, 65.7 µM; on HLA-DRB1*0801 it was 9.43 µM; at HLA-DRB1*1101, 92.2 µM; on HLA-DRB1*1501, 700 nM.

As for `CC[C@H](C)[C@H](NC(=O)[C@H](CCCCN)NC(=O)CNC(=O)[C@@H](NC(=O)[C@H](CC(C)C)NC(=O)[C@H](CCCCN)NC(=O)[C@H](CCCNC(=N)N)NC(=O)[C@H](CC(N)=O)NC(=O)[C@H](CO)NC(=O)[C@H](CC(C)C)NC(=O)[C@H](CC(=O)O)NC(=O)[C@H](CC(N)=O)NC(=O)[C@H](Cc1c[nH]c2ccccc12)NC(=O)[C@H](Cc1ccc(O)cc1)NC(=O)[C@H](CC(=O)O)NC(=O)[C@@H](NC(=O)CNC(C)=O)[C@@H](C)O)C(C)C)C(=O)N[C@@H](CC(N)=O)C(=O)N[C@H](C(=O)N[C@@H](CC(N)=O)C(N)=O)[C@@H](C)O` [EBA175_011] (Ac-GTDYWNDLSNRKLVGKINTN-NH2), the IC50 at HLA-DRB1*0101 is 462 nM; on HLA-DRB1*0401, 52.7 µM; on HLA-DRB1*0801, above 100 µM; at HLA-DRB1*1101, 28.6 µM; at HLA-DRB1*1301, above 100 µM; at HLA-DRB1*1501, 54200 nM.

Regarding `CC[C@H](C)[C@H](NC(=O)[C@H](CC(C)C)NC(=O)[C@H](Cc1c[nH]cn1)NC(=O)[C@H](Cc1ccccc1)NC(=O)[C@H](CCCCN)NC(=O)[C@H](CO)NC(=O)[C@H](CCCCN)NC(C)=O)C(=O)N[C@@H](CO)C(=O)N[C@@H](CCCNC(=N)N)C(=O)N[C@@H](CC(N)=O)C(=O)N[C@@H](CO)C(=O)N[C@@H](CCCNC(=N)N)C(=O)N[C@H](C(=O)N[C@@H](CC(N)=O)C(=O)N[C@@H](CCC(N)=O)C(=O)N[C@@H](Cc1ccc(O)cc1)C(N)=O)[C@@H](C)O` [RIPR_009] (Ac-KSKFHLISRNSRTNQY-NH2), the IC50 is 441 nM on HLA-DRB1*0101; 59.1 µM at HLA-DRB1*0401; 63.4 µM at HLA-DRB1*0801; 0.075 µM on HLA-DRB1*1101; 0.064 µM at HLA-DRB1*1301; 15800 nM at HLA-DRB1*1501.

The values are drawn from article PMC8294059, “Identification and Immune Assessment of T Cell Epitopes in Five Plasmodium falciparum Blood Stage Antigens to Facilitate Vaccine Candidate Selection and Optimization” (Frontiers in Immunology, 2021).
